# Experimental data as given in patent US5877165A, “Boronated porhyrins and methods for their use” (priority 1997, dated 1999).
# Values joined by “and” are separate entries in the source; they are usually repeats but may differ in a detail not shown here. Equal values may be shown once. Read-outs that look alike come from different tables or passages of the source.
# Columns and labels:
# [1] = tested on: KHJJ mammary carcinomas; assay: Boron biodistribution, mice with KHJJ mammary carcinomas (Examples 4-7, Table 1); assay type: in vivo, BALB/c mice; details: 6 hr after last i.p. injection; BPA 900 or NiTCP 160 μg/gbw; median (range); 900 mg/kg, 360 min
# Protocol: (§1) Female BALB/c mice (Taconic Farms, Germantown, N.Y.) (20-25 g) were implanted with either KHJJ or EMT-6 tumors. For KHJJ tumors, 1-3 mm^3 tumor fragments were implanted subcutaneously (s.c.) in the dorsal thorax of each mouse using an 18-gauge trocar. For EMT-6 tumors, 2.5×10^5 cells were implanted similarly using a 27-gauge needle. EMT-6 tumor cells were grown alternately in vivo and in vitro. Single-cell suspensions were prepared from mouse-grown tumors by trypsinization. These were grown in cell culture for several passages and then were frozen in 10% DMSO and stored in liquid nitrogen. Prior to implantation in mice, the cells were thawed and grown in tissue culture in Alpha-MEM with 10% FBS for several passages.
# (§2) Under deep halothane anesthesia leading to euthanasia, right ventricular blood was collected in Microtainer (Becton-Dickinson, Rutherford, N.J.) tubes containing EDTA for hematological analyses and boron assays of whole blood and in Microtainer™ tubes containing lithium heparin for chemical analyses and enzyme assays of blood plasma. Tumor, brain, fat, muscle, and liver tissues were sampled at necropsy for boron analyses.
# (§3) Direct current plasma-atomic emission spectroscopy [DCP-AES] (ARL/Fisons Model SS-7) was used (detection limit: 0.1 μg/ml). Samples (50-130 mg) were digested at 60° C. with sulfuric acid:nitric acid (1:1). Triton X-100 and water were added to give final concentrations of ≈50 mg tissue/ml, 15% total acid v/v and 5% Triton X-100 v/v. Fat and liver tissues were assayed for ^10 B by prompt-gamma spectroscopy (Fairchild, et al., 1986). The prompt-gamma measurements were multiplied by 5.0 to give the total boron concentrations due to the use of boron of natural isotope abundance in the syntheses of all boronated porphyrins reported.
# (§4) Seven mice having KHJJ mammary carcinomas were given one intraperitoneal (i.p.) injection of 900 μg/g body weight of the boron compound presently used for BNCT of malignant brain tumors, p-boronophenylalanine (BPA) complexed with fructose. BPA was prepared in accordance with procedure described in Coderre, et al., 1996 incorporated herein by reference in its entirety as if set forth in full.
# (§5) Mice were euthanized during the collection of blood while under Halothane anesthesia. At necropsy, the apparent states of structural integrity, consistency, color or abnormality, if any, of tissues were observed and tumor, brain and liver tissues were collected from each mouse for boron analysis.
# (§6) Eight mice having KHJJ mammary carcinomas were injected with the NiTCP solution in the amount of 160 μg NiTCP/g body weight (36 μgB/g body weight) in six i.p. injections over 20 hours.
# (§7) Six hours after the mice were last injected with NiTCP, mice were euthanized during the collection of blood while under Halothane anesthesia and right ventricular blood was collected from each mouse for hematological and chemical analysis without pooling the samples. At necropsy, the apparent states of structural integrity, consistency, color, or abnormality, if any, of tissues were observed and tumor, brain and liver tissues were collected from each mouse for boron analysis without pooling the samples.
# (§8) Seven mice having KHJJ mammary carcinomas were injected with the NiTCP solution in the amount of 160 μg NiTCP/g body weight (36 μgB/g body weight) in six i.p. injections over 20 hours.
# as §7, with “Sixteen hours” for “Six hours”, “were” for “were last”, “boron analysis. […]” for “boron analysis without pooling the samples.”
# [2] = as above; assay type: in vivo, BALB/c mice; details: mouse, ip, 900 mg/kg, 6 hr after last i.p. injection, BPA 900 or NiTCP 160 μg/gbw, median (range)
# Protocol: as §1, §2, §3, §4, §5, §6, §7, §8
# as §7, with “Sixteen hours” for “Six hours”, “were” for “were last”, “boron analysis. […]” for “boron analysis without pooling the samples.”
# [3] = Hematological, enzymatic and chemical blood analyses and weight change, mice with KHJJ mammary carcinomas (Examples 4-7, Table 1); assay type: in vivo, BALB/c mice; details: NiTCP 160 or BPA 900 μg/gbw; 6-78 hr
# Protocol: as §1, with “passages. […]” for “passages.”
# Levels of glucose [GLU], blood urea nitrogen [BUN], blood creatinine [BCR], alanine transaminase [ALT], aspartate transaminase [AST], alkaline phosphatase [ALP], total protein [TPR], albumin [ALB], and creatine phosphokinase [CPK] were determined in blood plasma using a Cobas Fara II microanalysis system. Blood platelets [PLT] and white blood cells [WBC] were counted using a Serono-Baker System 9000 automated hematology microanalyzer. […]
# [4] = tested on: EMT-6 tumors; assay: Experiment IV: boron concentrations in tissues, mice bearing EMT-6 tumors (Table 10); assay type: in vivo, BALB/c mice; details: 90 hrs after last of 5 ip CuTCP (160 μg/gbw); BPA (837 μg/gbw) 1 ip 6 hr before euthanasia; 836 mg/kg
# Protocol: (§9) Lipophilic porphyrins 1, 2, 4, 5, and 6 were injected as emulsions in either 3% or 9% CRM and either 6% or 18% PRG with saline as previously described in Example 2 above. Water soluble porphyrins 3 and 7 were dissolved in saline. BPA was solubilized as a fructose complex.
# (§10) Female BALB/c mice (from Taconic Farms, Germantown, N.Y.) (20-25 g) were implanted with either KHJJ or EMT-6 tumors according to the procedure described in Example 3A above.
# as §2
# (§11) In Experiment IV, samples of BPA (836 μg/gbw), CuTCP (160 μg/gbw) and a combination of both were tested in mice with EMT-6 tumors. BPA was given in a single i.p. injection and mice were euthanized 6 hours later. CuTCP was given in 5 i.p. injections over 28 hours and mice were euthanized 90 hrs after the last injection. The group receiving both CuTCP and BPA were injected with CuTCP five times over 28 hours as was the CuTCP-only group and then with a single i.p. injection of BPA 6 hours prior to euthanasia which was 90 hours after the last injection of CuTCP.
# (§12) Hematological, chemical and enzymatic tests were carried out as described in Example 3 above. Nonparametric statistical analyses were carried out using the Wilcoxon Two-Sample Test in accordance with procedures described in Slatkin, D.N., 1995. Boron analyses were conducted in accordance with the procedure described in Example 3 above. Fat and liver tissues were assayed for ^10 B by prompt-gamma spectroscopy as described in Fairchild, et al., 1986. These measurements were multiplied by 5.0 to give total boron concentrations due to the use of boron of natural isotope abundance in the syntheses of all boronated porphyrins reported.
# [5] = as above; assay type: in vivo, BALB/c mice; details: mouse, ip, 837 mg/kg, BPA fructose complex, 6 hr, tumor model not restated
# Protocol: as §9, §10, §2, §11, §12
# [6] = clinical BNCT (Coderre, et al., 1997); cited from earlier work
# [7] = tested on: 9L gliosarcomas; design: species or system Fischer 344 rats; details: rat, in vivo, iv
# Protocol: 2C. Preparation of CuTCP and CuTCP-H Solution for Rat Studies
# (§13) CuTCP-H as prepared in Example 1D was formulated with 9% CRM and 18% PrG to form a solution to which saline was added dropwise to yield 3.34 mg/ml of CuTCP and […] CuTCP-H, respectively. The resulting total doses were 215 mg/kg body weight for CuTCP and 149 mg/kg body weight for CuTCP-H. These solutions were then utilized for toxicity and biodistribution experiments in rats.
# as §3
# Male Fischer 344 rats each bearing 4 subcutaneous 9L gliosarcomas were given 210-219 mg CuTCP/kg body wt by 48-h iv infusion. Tumor and blood were sampled at 0, 1, 2, and 3 days after the end of infusion for boron analyses and blood for toxicity. Rats were euthanized on day 3 and other organs were analyzed for boron uptake.
# [8] = Toxicity testing of NiTCP, MnTCP and CuTCP in normal mice (Example 13, Table 3); assay type: in vivo, BALB/c mice; details: 4 days after last of 6 ip injections
# Protocol: Levels of glucose [GLU], blood urea nitrogen [BUN], blood creatinine [BCR], alanine transaminase [ALT], aspartate transaminase [AST], alkaline phosphatase [ALP], total protein [TPR], albumin [ALB], and creatine phosphokinase [CPK] were determined in blood plasma using a Cobas Fara II microanalysis system. Blood platelets [PLT] and white blood cells [WBC] were counted using a Serono-Baker System 9000 automated hematology microanalyzer.
# Compounds prepared as in Example 1B and 1C were formulated with 6% Cremophor EL [CRM] and 12% propylene glycol [PrG] in saline. Total doses of MnTCP and CuTCP of 174 and 223 μg/g body weight, respectively, were administered to normal BALB/c mice. Each mouse was given 6 intraperitoneal [ip] injections over a period of 32 hours. Mice were euthanized 4 days after the last injection and chemical, enzymatic and hematological analyses of their blood were compared to those of similar mice given NiTCP at a dose of 252 μg/g body weight.
# [9] = Overall ranking of boronated porphyrins for BNCT guided by biodistribution and toxicity tests in mice (Table 11)
# Protocol: The higher the numerical value, the better the performance of that porphyrin for that property. […] Although VCDP was able to deliver therapeutic amounts of boron to tumor, such side effects such as thrombocytopenia, which was induced within 3 hours after injections, weight loss, and the altered hepatic enzymes were serious enough to rank VCDP considerably behind the TCP's and the TCP-H's (Miura et al., 1992). In addition, the 80-hour drug administration period and the 90-hour blood clearance period are of great inconvenience. Moreover, this 4-day difference between the VCDP and the TCP (or TCP-H) dose and clearance schedules would translate into a 4-day greater delay between initiation of drug administration and neutron irradiation which would allow greater tumor growth to occur.
# […]
# […]
# [10] = tested on: 9L gliosarcomas; design: species or system Fischer 344 rats; details: rat, in vivo
# Protocol: as §13, §3
# CuTCP-H (146-152 mg/kg body weight) was given to four Fischer 344 rats each bearing four subcutaneous 9L gliosarcomas. A solution of 3.34 mg CuTCP-H/mL, in 9% CRM and 18% PrG, was given to rats by 48-hour i.v. infusion in a total volume of 9.6 mL.
compound,measurement,setting,value
"N[C@@H](Cc1ccc(B(O)O)cc1)C(=O)O [BPA, p-boronophenylalanine]",Boron Concentration: Tumor,[1],≈ 14 μg B/g
same,concentration at 6 h,"[2]; blood, read-out: Boron Concentration: Blood",4600 ng/g
same,concentration at 6 h,"[2]; brain, read-out: Boron Concentration: Brain",7200 ng/g
same,concentration at 6 h,"[2]; tumor, read-out: Boron Concentration: Tumor",13800 ng/g
same,"toxicity, in words",[3],"undetectable, minimal, or negligible in every respect"
same,"Boron concentration, Blood",[4],2.0 (1.2-3.6) μg B/g
same,"Boron concentration, Brain",[4],8.1 (5.9-9.6) μg B/g
same,"Boron concentration, Fat",[4],0.4 (0-1.8) μg B/g
same,"Boron concentration, Liver",[4],2.1 (0.1-3.1) μg B/g
same,"Boron concentration, Muscle",[4],3.8 (2.1-7.9) μg B/g
same,"Boron concentration, Tumor",[4],5.4 (3.5-23) μg B/g and 5.4 μg B/g
same,concentration at 6 h,"[5]; blood, read-out: Blood boron",2000 ng/g
same,concentration at 6 h,"[5]; brain, read-out: Brain boron, median",8000 ng/g
same,brain and blood boron concentrations relative to tumor,[6],approximately one-third that found in tumor
same,"chemical toxicity, in words",[6],not eliciting any chemical toxicity
Copper Tetracarboranylphenylporphyrin [CuTCP],time to rapid and almost total clearance of boron in blood,[7],≤ 2 days
same,Boron concentration in tumor,"[7]; 215 mg/kg, 0 h",54-68 μg B/g
same,Boron concentration in tumor,"[7]; 215 mg/kg, 48 h",38-69 μg B/g
same,boron in cerebellum,"[7]; 215 mg/kg, 48 h",1.5 μg B/g
same,boron in cerebrum,"[7]; 215 mg/kg, 48 h",2.5 μg B/g
same,median boron in blood,"[7]; 215 mg/kg, 48 h",6 μg B/g
same,median boron in tumor,"[7]; 215 mg/kg, 48 h",55 μg B/g
same,"average boron concentration, cerebellum","[7]; 215 mg/kg, 72 h",1-2 μg B/g
same,"average boron concentration, cerebrum","[7]; 215 mg/kg, 72 h",1-2 μg B/g
same,"toxicity / thrombocytopenia, in words",[8],little if any difference in toxicity
same,Drug tolerance/deliverable boron (ranking),[9],4
same,Lipophilicity (ranking),[9],2
same,Tumor uptake (normalized) (ranking),[9],3
same,Tumor:Blood (ranking),[9],3
Copper Tetracarboranylporphyrin Hydride [CuTCP-H],tumor:blood ratio (boron),[10]; 2880 min,16:1
same,"Boron concentration, Blood","[10]; iv, 149 mg/kg, 0 h",183 (160-205) μg B/g
same,"Boron concentration, Tumor","[10]; iv, 149 mg/kg, 0 h",45 (23-51) μg B/g
same,"Boron concentration, Blood","[10]; iv, 149 mg/kg, 24 h",62 (56-65) μg B/g
same,"Boron concentration, Tumor","[10]; iv, 149 mg/kg, 24 h",46 (35-52) μg B/g
same,"Boron concentration, Blood","[10]; iv, 149 mg/kg, 120 h",0.6 (0.3-0.7) μg B/g
same,"Boron concentration, Cerebellum","[10]; iv, 149 mg/kg, 120 h",2.8 (2.1-6.2) μg B/g
same,"Boron concentration, Cerebrum","[10]; iv, 149 mg/kg, 120 h",4.9 (2.2-6.9) μg B/g
same,"Boron concentration, Liver","[10]; iv, 149 mg/kg, 120 h",345 (336-408) μg B/g
same,"Boron concentration, Tumor","[10]; iv, 149 mg/kg, 120 h",31 (23-55) μg B/g
Manganese Tetracarboranylphenylporphyrin [MnTCP],"toxicity / thrombocytopenia, in words",[8],little if any difference in toxicity
